For series [1], the target named is T1, Cytochrome P450 3A4 (Homo sapiens, UniProt P08684). As to the kind of experiment: Mechanism based inhibition of human cytochrome P450 3A4, partition ratio. Format: ADME.
In series [2] the target is T1, Cytochrome P450 3A4. The series is described as follows: Mechanism based inhibition of human cytochrome P450 3A4 measured by nifedipine oxidation, omeprazole 3-hydroxylation and omeprazole sulfoxydation. Format: ADME.
Series [3] has as its target T1, Cytochrome P450 3A4. As to the kind of experiment: Mechanism based inhibition of human cytochrome P450 3A4 measured by testosterone 6-beta hydroxylation. The series is classed as ADME.
Series [4] addresses Cytochrome P450 2C9 (Homo sapiens, UniProt P11712). The series is described as follows: Mechanism based inhibition of human cytochrome P450 2C9 measured by diclofenac 4-hydroxylation. The series is classed as ADME.
Series [5] has as its target T2, Cytochrome P450 2D6 (Homo sapiens, UniProt P10635). As to the kind of experiment: Mechanism based inhibition of human cytochrome P450 2D6 measured by […] 1'-hydroxylation. Format: ADME.
Series [6] addresses T1, Cytochrome P450 3A4. As to the kind of experiment: Mechanism based inhibition of human cytochrome P450 3A4 measured in vivo. Format: ADME, organism-based.
The target of series [7] is CYP2D6 (Homo sapiens, UniProt P10635). As to the kind of experiment: (§1) Mechanism based inhibition of human cytochrome P450 2D6 measured by dextromethorphan O-demethylation. Format: ADME. Conditions: human, probe dextromethorphan.
Series [8] deals with T2, Cytochrome P450 2D6. Described as §1. Format: ADME.
The target of series [9] is T3, Cytochrome P450 2C11 (Rattus norvegicus, UniProt P08683).
T3 sequence (P08683 whole entry): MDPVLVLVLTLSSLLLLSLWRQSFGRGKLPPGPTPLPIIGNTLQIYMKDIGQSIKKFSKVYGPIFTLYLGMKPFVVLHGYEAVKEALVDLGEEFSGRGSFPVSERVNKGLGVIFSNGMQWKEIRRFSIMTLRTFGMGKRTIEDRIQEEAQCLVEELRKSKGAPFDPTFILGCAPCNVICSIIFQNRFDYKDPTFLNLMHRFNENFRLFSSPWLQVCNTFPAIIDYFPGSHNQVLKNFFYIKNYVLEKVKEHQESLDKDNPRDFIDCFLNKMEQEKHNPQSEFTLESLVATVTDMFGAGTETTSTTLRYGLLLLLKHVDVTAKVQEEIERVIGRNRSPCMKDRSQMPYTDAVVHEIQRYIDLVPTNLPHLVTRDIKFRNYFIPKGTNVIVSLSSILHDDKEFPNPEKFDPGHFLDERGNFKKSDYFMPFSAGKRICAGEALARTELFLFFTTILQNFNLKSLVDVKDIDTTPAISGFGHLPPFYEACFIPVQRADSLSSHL
As to the kind of experiment: Mechanism based inhibition of rat cytochrome P450 CYP2C11 measured by 2-alpha and 16-alpha hydroxylation of testosterone. Format: ADME.

For series [10], the target named is T4, Cytochrome P450 2C8 (Homo sapiens, UniProt P10632).
T4 sequence (P10632 whole entry): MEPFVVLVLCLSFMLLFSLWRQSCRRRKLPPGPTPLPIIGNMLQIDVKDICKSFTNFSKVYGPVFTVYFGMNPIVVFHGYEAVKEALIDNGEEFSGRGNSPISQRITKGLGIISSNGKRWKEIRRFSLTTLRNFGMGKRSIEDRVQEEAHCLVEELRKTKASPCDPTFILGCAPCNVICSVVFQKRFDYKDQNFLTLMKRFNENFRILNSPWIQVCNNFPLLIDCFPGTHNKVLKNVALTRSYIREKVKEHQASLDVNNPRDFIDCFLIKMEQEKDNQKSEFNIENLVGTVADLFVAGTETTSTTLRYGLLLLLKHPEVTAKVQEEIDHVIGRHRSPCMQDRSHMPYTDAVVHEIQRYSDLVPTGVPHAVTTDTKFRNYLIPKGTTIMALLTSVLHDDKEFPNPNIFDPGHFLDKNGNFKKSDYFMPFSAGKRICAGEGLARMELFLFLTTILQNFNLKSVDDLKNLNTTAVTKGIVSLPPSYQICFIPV
Description: (§3) Mechanism based inhibition of human cytochrome P450 2C8 measured by paclitaxel hydroxylation using a recombinant system

Series [11] concerns the target T5, CYP2C8 (Homo sapiens, UniProt P10632).
T5 sequence (P10632 whole entry): T4 sequence (P10632 whole entry)
The series is described as follows: in vitro. The conditions noted are these: recombinant CYP2C8, probe paclitaxel.
Description: as §3

In series [12] the target is T6, Cytochrome P450 2B1 (Rattus norvegicus, UniProt P00176).
T6 sequence (P00176 whole entry): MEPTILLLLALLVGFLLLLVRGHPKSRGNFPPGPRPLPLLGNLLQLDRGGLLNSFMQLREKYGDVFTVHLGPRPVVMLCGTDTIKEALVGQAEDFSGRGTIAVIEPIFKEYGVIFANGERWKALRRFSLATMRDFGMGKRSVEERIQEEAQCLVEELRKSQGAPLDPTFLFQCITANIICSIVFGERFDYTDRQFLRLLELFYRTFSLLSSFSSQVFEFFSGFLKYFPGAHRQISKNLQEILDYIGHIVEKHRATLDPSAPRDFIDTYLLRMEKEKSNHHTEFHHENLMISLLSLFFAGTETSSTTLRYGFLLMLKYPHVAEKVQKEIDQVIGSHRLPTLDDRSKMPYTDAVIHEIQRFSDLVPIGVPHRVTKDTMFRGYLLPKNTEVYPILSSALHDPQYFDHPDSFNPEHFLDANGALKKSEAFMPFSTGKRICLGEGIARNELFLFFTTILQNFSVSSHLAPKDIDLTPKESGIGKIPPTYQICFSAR
The series is described as follows: Mechanism based inhibition of rat cytochrome P450 CYP2B1. The series is classed as ADME. Conditions: rat.

In series [13] the target is T7, CYP2B1 (Rattus norvegicus, UniProt P00176).
T7 sequence (P00176 whole entry): T6 sequence (P00176 whole entry)
The series is described as follows: (§2) Mechanism based inhibition of rat cytochrome P450 CYP2B1 measured by 7-EFC O-deethylation activity. The conditions noted are these: rat, probe 7-EFC (O-deethylation). The series is classed as ADME.

Series [14] deals with T6, Cytochrome P450 2B1. The description is as §2. Format: ADME.
Series [15] addresses T8, Cytochrome P450 1A2 (Homo sapiens, UniProt P05177).
T8 sequence (P05177 whole entry): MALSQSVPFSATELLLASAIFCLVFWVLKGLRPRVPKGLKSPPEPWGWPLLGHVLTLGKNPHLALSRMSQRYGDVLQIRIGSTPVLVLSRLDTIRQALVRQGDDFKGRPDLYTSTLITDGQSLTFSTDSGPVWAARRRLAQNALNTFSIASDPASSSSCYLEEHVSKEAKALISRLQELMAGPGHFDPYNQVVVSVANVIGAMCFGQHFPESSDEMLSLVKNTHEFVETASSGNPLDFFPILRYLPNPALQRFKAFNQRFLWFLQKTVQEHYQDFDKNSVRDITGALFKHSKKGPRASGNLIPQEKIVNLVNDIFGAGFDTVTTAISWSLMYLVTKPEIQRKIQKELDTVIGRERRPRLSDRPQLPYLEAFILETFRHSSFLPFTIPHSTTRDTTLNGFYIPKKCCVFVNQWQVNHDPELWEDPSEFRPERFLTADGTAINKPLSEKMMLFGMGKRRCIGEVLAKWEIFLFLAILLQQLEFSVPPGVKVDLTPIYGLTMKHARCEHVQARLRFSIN
The series is described as follows: Mechanism based inhibition of human cytochrome P450 1A2 measured by 7-ethoxyresorufin O-deethylation (EROD).

“Also recorded” adds a separate entry of the source.

T1 sequence (P08684 whole entry): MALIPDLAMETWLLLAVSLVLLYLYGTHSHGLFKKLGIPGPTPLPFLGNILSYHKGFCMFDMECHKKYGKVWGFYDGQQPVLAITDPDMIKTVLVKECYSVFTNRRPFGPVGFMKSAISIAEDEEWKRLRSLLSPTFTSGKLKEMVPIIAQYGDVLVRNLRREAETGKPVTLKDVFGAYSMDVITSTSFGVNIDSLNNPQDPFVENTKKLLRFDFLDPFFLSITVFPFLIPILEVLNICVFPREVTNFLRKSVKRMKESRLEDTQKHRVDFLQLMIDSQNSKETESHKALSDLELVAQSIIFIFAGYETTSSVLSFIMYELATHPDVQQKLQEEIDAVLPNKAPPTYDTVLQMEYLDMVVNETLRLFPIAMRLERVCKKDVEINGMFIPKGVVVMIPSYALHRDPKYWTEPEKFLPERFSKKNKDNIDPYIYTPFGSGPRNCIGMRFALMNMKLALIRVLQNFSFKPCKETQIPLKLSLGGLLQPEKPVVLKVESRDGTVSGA
T2 sequence (P10635 whole entry): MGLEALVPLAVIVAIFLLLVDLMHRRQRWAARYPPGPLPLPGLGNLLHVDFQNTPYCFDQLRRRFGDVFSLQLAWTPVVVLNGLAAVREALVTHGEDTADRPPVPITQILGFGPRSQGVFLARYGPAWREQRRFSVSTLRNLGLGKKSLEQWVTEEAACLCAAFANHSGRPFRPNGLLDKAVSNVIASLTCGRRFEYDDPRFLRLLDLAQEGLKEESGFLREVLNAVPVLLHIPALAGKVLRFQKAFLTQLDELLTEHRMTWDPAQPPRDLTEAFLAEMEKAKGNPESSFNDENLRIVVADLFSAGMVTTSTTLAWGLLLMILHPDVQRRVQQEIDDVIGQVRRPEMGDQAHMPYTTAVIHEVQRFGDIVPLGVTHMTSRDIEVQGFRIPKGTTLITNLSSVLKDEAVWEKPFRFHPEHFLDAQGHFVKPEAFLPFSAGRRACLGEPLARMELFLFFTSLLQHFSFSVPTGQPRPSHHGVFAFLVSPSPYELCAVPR
CYP2D6, sequence (P10635 whole entry): as above
Cytochrome P450 2C9, sequence (P11712 whole entry): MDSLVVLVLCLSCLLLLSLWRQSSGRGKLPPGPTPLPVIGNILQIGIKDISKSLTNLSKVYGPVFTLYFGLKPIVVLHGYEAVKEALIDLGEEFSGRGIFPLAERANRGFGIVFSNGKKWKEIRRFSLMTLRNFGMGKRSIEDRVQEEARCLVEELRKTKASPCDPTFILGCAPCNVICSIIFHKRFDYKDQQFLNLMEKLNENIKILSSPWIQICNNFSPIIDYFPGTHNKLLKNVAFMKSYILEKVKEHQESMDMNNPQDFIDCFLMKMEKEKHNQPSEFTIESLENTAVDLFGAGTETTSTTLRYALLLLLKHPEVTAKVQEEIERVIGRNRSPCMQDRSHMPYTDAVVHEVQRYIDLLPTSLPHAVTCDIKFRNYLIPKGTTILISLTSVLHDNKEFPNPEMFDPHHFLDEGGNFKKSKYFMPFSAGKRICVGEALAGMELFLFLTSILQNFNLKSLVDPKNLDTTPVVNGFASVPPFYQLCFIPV

Turning to `CC(C)Nc1cccnc1N1CCN(C(=O)c2cc3cc(NS(C)(=O)=O)ccc3[nH]2)CC1` [DELAVIRDINE], the Partition ratio in series [1] stood at 41. For the molecule `C/C(=C\COc1c2ccoc2cc2oc(=O)ccc12)CCC(OC(C)(C)C(O)CC/C(C)=C/COc1c2ccoc2cc2oc(=O)ccc12)C(C)(C)O` (stereo unspecified) [FC726], the Ki in series [2] worked out at 0.13 µM. Also, the mechanism based inhibition entry in series [3] is given as “Cytochrome P450 mechanistic inhibitor: PMID 10859150”. Regarding `COc1ccc2c(c1OC)C(=O)O[C@@H]2[C@H]1c2cc3c(cc2CCN1C)OCO3` [HYDRASTINE], the mechanism based inhibition result in series [4] and in series [5] was “Cytochrome P450 mechanistic inhibitor: PMID 14570772” in each case.

For the molecule `CN(C)c1ccc([C@H]2C[C@@]3(C)[C@@H](CC[C@@]3(O)/C=C\CO)[C@@H]3CCC4=CC(=O)CCC4=C32)cc1` [LILOPRISTONE], in series [6], the mechanism based inhibition result is “Cytochrome P450 mechanistic inhibitor: PMID 9697076”. A word on the kinact: it is the maximal first-order rate at which the target is inactivated. Take `CCN(CC)CCNC(=O)c1cc(Cl)c(N)cc1OC` [METOCLOPRAMIDE]: in series [7], the kinact was 0.000433 s⁻¹. In addition, the Ki in [8] stood at 0.96 µM. For `CNCCC=C1c2ccccc2CCc2ccccc21` [NORTRIPTYLINE], in series [9], the mechanism based inhibition entry is recorded as “Cytochrome P450 mechanistic inhibitor: PMID 1435757; also recorded: Cytochrome P450 mechanistic inhibitor: PMID 14555335”. The same molecule came in with a Ki in [10] of 49.9 µM. Further, the kinact in series [11] was 0.0006 s⁻¹. On to `CN(C)c1ccc([C@H]2C[C@]3(C)[C@@H](CC[C@]3(O)CCCO)[C@@H]3CCC4=CC(=O)CCC4=C32)cc1` [ONAPRISTONE], for which the mechanism based inhibition result in [6] is given as “Cytochrome P450 mechanistic inhibitor: PMID 9697076”.

For `C=CCC1(C(C)CCC)C(=O)NC(=O)NC1=O` (stereo unspecified) [SECOBARBITAL], in series [12], the mechanism based inhibition entry is given as “Cytochrome P450 mechanistic inhibitor: PMID 8728507”.

In the case of `C#CCN(C)[C@H](C)Cc1ccccc1` [SELEGILINE], the kinact in series [13] was 0.00383 s⁻¹. In addition, the Ki in series [14] was determined as 1.05 µM. Take `Nc1c2c(nc3ccccc13)CCCC2` [TACRINE]: the Ki in series [15] was found to be 1.94 µM.

The record behind these values is ChEMBL document CHEMBL1743341, “Cytochrome p450 enzymes mechanism based inhibitors: common sub-structures and reactivity” (Curr Drug Metab, 2005).
